Ki data for 53 compounds are collected here from patent US6838479B2, “Amidine inhibitors of serine proteases” (Genentech, Inc., priority 2000, dated 2005).

The target in test [1] is T1, human Factor Xa (Homo sapiens, UniProt P00742).
T1 construct: This complex converts factor X to Xa
In words: Factor Xa assay (chromogenic, Ki). To be noted: 3.3 nM Xa, S-2222 0.5 mM; read-out: binding affinity to serine proteases: Xa. Format: biochemical. How it is done: Factor Xa, Thrombin, and Plasma Kallikrein Assays
These procedures are used to determine the constant of inhibition (Ki) for a sample compound of the invention.
Procedure • 1. Add 50 μL sample to each well. • 2. Add 50 μL appropriately diluted coagulation factor to each well. • 3. Incubate for 5 minutes at room temperature with gentle agitation. • 4. Add 50 μL appropriately diluted substrate to each well. • 5. Agitate plate for 20-25 sec. • 6. Monitor absorbance at 405 nm every 10 sec for a total of 5 minutes at room temperature. • 7. Calculate Vmax over 10 points.

Test [2] deals with tissue factor/factor VIIa (Homo sapiens, UniProt P08709). In words: Tissue Factor/Factor VIIa antagonist assay (chromogenic, Ki). To be noted: 10 nM VIIa, 30 nM TF, Chromozym-tPA 1.33 mM; read-out: binding affinity to serine proteases: VIIa. The test is classed as biochemical. How it is done:
Tissue Factor/Factor VIIa Antagonist Assay
This procedure is used to determine the constant of inhibition (Ki) for a sample compound of the invention.
Procedure • 1. Prepare a solution of 2 μg/mL (90 nM) tissue factor and 1.5 μg/mL (30 nM) factor VIIa in assay buffer with CaCl2. • 2. Incubate for 15 minutes at room temperature. • 3. Add 50 μL sample to each well. • 4. Add 50 μL tissue factor/factor VIIa solution to each well. • 5. Incubate for 15 minutes at room temperature with gentle agitation. • 6. Add 50 μL substrate to each well. • 7. Agitate plate for 20-25 sec. • 8. Monitor absorbance at 405 nm every 10 see for a total of 5 minutes at room temperature. • 9. Calculate Vmax over 10 points.

Chain of tissue factor/factor VIIa (P08709 213-466 limits assumed): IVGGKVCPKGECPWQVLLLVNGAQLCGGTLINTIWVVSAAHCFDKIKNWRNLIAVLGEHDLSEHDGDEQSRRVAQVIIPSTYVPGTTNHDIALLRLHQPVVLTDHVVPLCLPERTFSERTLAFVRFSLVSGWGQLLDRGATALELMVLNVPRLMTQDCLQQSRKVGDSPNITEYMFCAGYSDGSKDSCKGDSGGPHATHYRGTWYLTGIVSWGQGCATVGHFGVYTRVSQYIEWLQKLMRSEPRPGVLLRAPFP
Chain of tissue factor/factor VIIa (P08709 61-212 limits assumed): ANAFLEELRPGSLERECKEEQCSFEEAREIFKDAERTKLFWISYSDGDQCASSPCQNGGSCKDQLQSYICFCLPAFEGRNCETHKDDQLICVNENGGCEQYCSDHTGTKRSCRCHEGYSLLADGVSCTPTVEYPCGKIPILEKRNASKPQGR
Chain of tissue factor/factor VIIa (P13726 33-251 partner limits assumed): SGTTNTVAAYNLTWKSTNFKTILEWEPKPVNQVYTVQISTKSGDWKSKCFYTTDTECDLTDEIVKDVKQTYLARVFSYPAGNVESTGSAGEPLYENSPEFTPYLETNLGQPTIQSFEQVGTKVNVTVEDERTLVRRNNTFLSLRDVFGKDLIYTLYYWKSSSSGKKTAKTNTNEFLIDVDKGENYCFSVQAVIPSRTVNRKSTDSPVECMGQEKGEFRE
T1 sequence (P00742 235-488 limits assumed): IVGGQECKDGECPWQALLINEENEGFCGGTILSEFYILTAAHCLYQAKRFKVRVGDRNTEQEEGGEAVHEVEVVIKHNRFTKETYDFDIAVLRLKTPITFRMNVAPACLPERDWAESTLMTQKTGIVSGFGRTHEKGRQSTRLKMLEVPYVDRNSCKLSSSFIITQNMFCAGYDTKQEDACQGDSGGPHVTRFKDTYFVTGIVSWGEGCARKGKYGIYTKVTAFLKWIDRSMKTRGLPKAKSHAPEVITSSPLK
T1 sequence (P00742 41-179 limits assumed): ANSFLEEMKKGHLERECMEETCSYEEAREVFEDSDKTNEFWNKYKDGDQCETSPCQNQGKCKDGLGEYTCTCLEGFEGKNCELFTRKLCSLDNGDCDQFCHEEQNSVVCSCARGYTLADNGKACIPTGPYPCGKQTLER

Turning to `N=C(N)c1ccc(NC(=O)[C@@H]2C[C@@H](Oc3cccc(C(=N)N)c3)CN2)cc1` [compound 2], the values for the Ki in test [1] and in test [2] were 1.15 µM and 64 µM, respectively. Turning to `COc1ccc(CNC(=O)[C@@H]2C[C@@H](Oc3cccc(C(=N)N)c3)CN2)cc1` [compound 8], the Ki in test [1] was 3.32 µM; in test [2], no less than 390 µM. As to `Cc1ccc(CNC(=O)[C@@H]2C[C@@H](Oc3cccc(C(=N)N)c3)CN2)cc1` [compound 9], the Ki in test [1] is 5.13 µM; in test [2], no less than 390 µM. As for `N=C(N)c1cccc(O[C@H]2CN[C@H](C(=O)N3CCc4ccccc4C3)C2)c1` [compound 10], the Ki amounted to 5.35 µM in test [1] and 98.5 µM in test [2]. Consider `N=C(N)c1cccc(O[C@H]2CN[C@H](C(=O)NCCC3CNc4ccccc43)C2)c1` (some centres unmarked) [compound 12], for which the values for the Ki in test [1] and in test [2] were 6.02 µM and 156 µM, respectively. In the same order, the values of `Cc1cccc(CNC(=O)[C@@H]2C[C@@H](Oc3cccc(C(=N)N)c3)CN2)c1` [compound 13] are 6.12 µM and no less than 390 µM. Turning to `CN1CCN(C(=O)[C@@H]2C[C@@H](Oc3cccc(C(=N)N)c3)CN2)CC1` [compound 18], the Ki was 8.87 µM in test [1] and 273 µM in test [2]. Consider `N=C(N)c1cccc(O[C@H]2CN[C@H](C(=O)NCc3cccc(Cl)c3)C2)c1` [compound 19], for which the Ki in test [1] is 9 µM; in test [2] it was 312 µM. In the same order, the values of `N=C(N)c1cccc(O[C@H]2CN[C@H](C(=O)NCc3ccc4ccccc4c3)C2)c1` [compound 20] are 9.07 µM and 234 µM. In the same order, the values of `COc1ccc(CNC(=O)[C@@H]2C[C@@H](Oc3cccc(C(=N)N)c3)CN2C(C)=O)cc1` [compound 23] are 12 µM and greater than 195 µM.

`N=C(N)c1cccc(O[C@H]2CN[C@H](C(=O)Nc3ccc(C(F)(F)F)cc3)C2)c1` [compound 24]: the Ki in test [1] came out at 12.9 µM; in test [2], 312 µM.

On to `N=C(N)c1cccc(O[C@H]2CN[C@H](C(=O)NC3CCc4ccccc43)C2)c1` (some centres unmarked) [compound 25], for which the results for the Ki in test [1] and in test [2] were 13.3 µM and 156 µM, respectively. As for `C[C@@H](NC(=O)[C@@H]1C[C@@H](Oc2cccc(C(=N)N)c2)CN1)c1ccccc1` [compound 26], the Ki in test [2] turned out to be 142 µM. For the compound `N=C(N)c1cccc(O[C@H]2CN[C@H](C(=O)Nc3ccc(-c4ccccc4)cc3)C2)c1` [compound 28], the Ki in test [1] is 14.1 µM; in test [2], no less than 390 µM.

`N=C(N)c1cccc(O[C@H]2CN[C@H](C(=O)Nc3ccc4ccccc4c3)C2)c1` [compound 29]: the Ki in test [1] was 14.2 µM; in test [2] it was 117 µM.

For the compound `N=C(N)c1cccc(O[C@H]2CN[C@H](C(=O)NCc3ccc(N)cc3)C2)c1` [compound 30], the Ki in test [1] came to 15.2 µM; in test [2] it was 312 µM. In the same order, the values of `C=CCNC(=O)[C@@H]1C[C@@H](Oc2cccc(C(=N)N)c2)CN1` [compound 31] are 15.2 µM and no less than 390 µM. For the compound `N=C(N)c1cccc(O[C@H]2CN[C@H](C(=O)Nc3cccc4ccccc34)C2)c1` [compound 33], the Ki in test [1] came to 15.5 µM; in test [2], 30.5 µM.

For `N#Cc1ccc(NC(=O)[C@@H]2C[C@@H](Oc3cccc(C(=N)N)c3)CN2)cc1` [compound 34], the Ki worked out at 16.8 µM in test [1] and 156 µM in test [2]. In the same order, the values of `N=C(N)c1cccc(O[C@H]2CN[C@H](C(=O)N3CCCCC3)C2)c1` [compound 35] are 19.7 µM and 94 µM.

Regarding `N=C(N)c1cccc(O[C@H]2CN[C@H](C(=O)NCc3ccccc3)C2)c1` [compound 37], the values for the Ki in test [1] and in test [2] were 21.7 µM and 312 µM, respectively.

For the compound `N=C(N)c1cccc(O[C@H]2CN[C@H](C(=O)N3CCCC3)C2)c1` [compound 38], the Ki in test [1] was 21.7 µM; in test [2] it was 129 µM. In the same order, the values of `Cc1ccccc1CNC(=O)[C@@H]1C[C@@H](Oc2cccc(C(=N)N)c2)CN1` [compound 39] are 22.8 µM and no less than 390 µM. Turning to `CN(C(=O)[C@@H]1C[C@@H](Oc2cccc(C(=N)N)c2)CN1)c1ccccc1` [compound 40], the Ki in test [1] amounted to 23 µM; in test [2], 156 µM. In the same order, the values of `N=C(N)c1cccc(O[C@H]2CN[C@H](C(=O)NCCc3ccccc3)C2)c1` [compound 41] are 24.3 µM and 187 µM. In the same order, the values of `N#Cc1ccccc1NC(=O)[C@@H]1C[C@@H](Oc2cccc(C(=N)N)c2)CN1` [compound 42] are 24.4 µM and 89 µM. In the same order, the values of `N=C(N)c1cccc(O[C@H]2CN[C@H](C(=O)Nc3ccccc3C(F)(F)F)C2)c1` [compound 43] are 24.5 µM and 156 µM.

As for `Cc1ccccc1NC(=O)[C@@H]1C[C@@H](Oc2cccc(C(=N)N)c2)CN1` [compound 44], the Ki came to 25.9 µM in test [1] and 117 µM in test [2]. As for `N=C(N)c1cccc(O[C@H]2CN[C@H](C(=O)Nc3cccc(C(F)(F)F)c3)C2)c1` [compound 45], the figures for the Ki in test [1] and in test [2] were 26.3 µM and 150 µM, respectively. For the compound `C[C@H](NC(=O)[C@@H]1C[C@@H](Oc2cccc(C(=N)N)c2)CN1)c1ccccc1` [compound 46], the Ki amounted to 27 µM in test [1] and 156 µM in test [2]. For `N=C(N)c1cccc(O[C@H]2CN[C@H](C(=O)NCc3ccccn3)C2)c1` [compound 47] the same measures were 31.4 µM and no less than 390 µM. For `COc1ccc(CNC(=O)[C@@H]2C[C@@H](Oc3cccc(C(=N)N)c3)CN2S(C)(=O)=O)cc1` [compound 48] the same measures were 33.6 µM and greater than 195 µM. In the same order, the values of `CCCNC(=O)[C@@H]1C[C@@H](Oc2cccc(C(=N)N)c2)CN1` [compound 49] are 33.8 µM and no less than 390 µM. For `COc1ccc(CNC(=O)[C@@H]2C[C@@H](Oc3cccc(C(=N)N)c3)CN2S(=O)(=O)c2ccccc2)cc1` [compound 50], the Ki in test [1] is 34.1 µM; in test [2], greater than 195 µM. As for `N=C(N)c1cccc(O[C@H]2CN[C@H](C(=O)NC3CCCCC3)C2)c1` [compound 51], the Ki in test [2] turned out to be 234 µM. For the compound `N=C(N)c1cccc(O[C@H]2CN[C@H](C(=O)NCCc3ccccc3)C2)c1` [compound 53], the Ki in test [1] was found to be 37.1 µM; in test [2], 133 µM. For the compound `CC(C)CCNC(=O)[C@@H]1C[C@@H](Oc2cccc(C(=N)N)c2)CN1` [compound 54], the figures for the Ki in test [1] and in test [2] were 38 µM and no less than 390 µM, respectively.

Regarding `N=C(N)c1cccc(O[C@H]2CN[C@H](C(=O)N[C@@H](Cc3ccccc3)C(=O)O)C2)c1` [compound 55], the Ki in test [1] is 44.9 µM; in test [2], 273 µM. On to `COc1ccc(CNC(=O)[C@@H]2C[C@@H](Oc3cccc(C(=N)N)c3)CN2C(=O)c2ccccc2)cc1` [compound 56], for which the Ki in test [1] is 47.3 µM; in test [2] it was greater than 195 µM. For `N=C(N)c1cccc(O[C@H]2CN[C@H](C(=O)N3CCC(O)CC3)C2)c1` [compound 57] the same measures were 49.3 µM and 312 µM. For `N=C(N)c1cccc(O[C@H]2CN[C@H](C(=O)NCc3cccnc3)C2)c1` [compound 58], the Ki is 50.7 µM in test [1] and no less than 390 µM in test [2]. In the same order, the values of `CC(C)NC(=O)[C@@H]1C[C@@H](Oc2cccc(C(=N)N)c2)CN1` [compound 59] are 59.8 µM and no less than 390 µM.

As to `N=C(N)c1cccc(O[C@H]2CN[C@H](C(=O)N3CCCC(C(N)=O)C3)C2)c1` (some centres unmarked) [compound 61], the Ki in test [1] turned out to be 62 µM. `N=C(N)c1cccc(O[C@H]2CN[C@H](C(=O)N3CCCCC3CCO)C2)c1` (some centres unmarked) [compound 62]: the Ki is 64.6 µM in test [1] and greater than 390 µM in test [2]. For the compound `N=C(N)c1cccc(O[C@H]2CN[C@H](C(=O)N3CCNCC3)C2)c1` [compound 63], the Ki in test [1] is 70 µM; in test [2], no less than 390 µM. `COc1ccc(NC(=O)[C@@H]2C[C@@H](Oc3cccc(C(=N)N)c3)CN2)cc1` [compound 64]: the values for the Ki in test [1] and in test [2] were 70.1 µM and 273 µM, respectively. Turning to `N=C(N)c1cccc(O[C@H]2CN[C@H](C(=O)Nc3ccc(F)cc3)C2)c1` [compound 65], the Ki in test [1] was determined as 70.1 µM; in test [2], 30.7 µM. For `N=C(N)c1cccc(O[C@H]2CN[C@H](C(N)=O)C2)c1` [compound 66] the same measures were 70.1 µM and 78 µM. In the same order, the values of `N=C(N)c1cccc(O[C@H]2CN[C@H](C(=O)N3CCCC(C(=O)O)C3)C2)c1` (some centres unmarked) [compound 67] are 87.7 µM and no less than 390 µM. As to `N=C(N)c1cccc(O[C@H]2CN[C@H](C(=O)N3CCCCC3CO)C2)c1` (some centres unmarked) [compound 68], the Ki in test [1] is 89.6 µM; in test [2], no less than 390 µM.

For `N=C(N)c1cccc(O[C@H]2CN[C@H](C(=O)N3CCCC(CO)C3)C2)c1` (some centres unmarked) [compound 69], the Ki is 90.2 µM in test [1] and 117 µM in test [2]. Regarding `N=C(N)c1cccc(O[C@H]2CN[C@H](C(=O)NCC(=O)O)C2)c1` [compound 77], the Ki in test [2] is greater than 390 µM. Still for that read-out and setting: the value for `C=CCOC(=O)[C@@H]1C[C@@H](Oc2cccc(C(=N)N)c2)CN1S(C)(=O)=O` [compound 78] was greater than 195 µM.
